The first experiment deals with b-Raf (V600E) (Homo sapiens (Human), UniProt P15056, V600E). The note with it: read-out: b-Raf IC-50; AlphaScreen, 60 min pre-incubation, 3 hours reaction.
b-Raf (V600E), sequence (P15056 whole entry V600E): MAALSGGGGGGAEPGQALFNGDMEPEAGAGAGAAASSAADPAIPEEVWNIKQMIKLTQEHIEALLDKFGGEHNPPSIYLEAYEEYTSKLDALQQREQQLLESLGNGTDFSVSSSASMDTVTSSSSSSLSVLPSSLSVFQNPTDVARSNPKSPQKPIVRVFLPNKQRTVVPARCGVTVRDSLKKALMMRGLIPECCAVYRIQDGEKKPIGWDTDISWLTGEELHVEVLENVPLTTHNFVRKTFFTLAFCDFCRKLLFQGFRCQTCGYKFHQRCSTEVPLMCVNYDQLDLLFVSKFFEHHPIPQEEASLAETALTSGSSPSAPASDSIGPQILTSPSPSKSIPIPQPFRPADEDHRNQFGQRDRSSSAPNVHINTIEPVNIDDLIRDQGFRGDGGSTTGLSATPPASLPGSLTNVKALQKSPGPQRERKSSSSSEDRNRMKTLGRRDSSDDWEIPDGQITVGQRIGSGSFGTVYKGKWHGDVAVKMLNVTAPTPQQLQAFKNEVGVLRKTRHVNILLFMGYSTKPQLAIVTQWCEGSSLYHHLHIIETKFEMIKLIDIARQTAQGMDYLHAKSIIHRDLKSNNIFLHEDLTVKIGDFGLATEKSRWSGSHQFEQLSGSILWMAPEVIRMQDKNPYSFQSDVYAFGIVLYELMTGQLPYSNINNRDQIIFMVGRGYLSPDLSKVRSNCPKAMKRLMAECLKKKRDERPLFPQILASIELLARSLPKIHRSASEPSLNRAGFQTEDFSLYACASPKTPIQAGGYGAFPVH
In the case of `COCCOc1nnc(-c2cc(NC(=O)c3ccnc(C(F)F)c3)ccc2C)cc1N1CCOCC1` [Example 598, 2-(difluoromethyl)-N-(3-(6-(2-methoxyethoxy)-5-morpholinopyridazin-3-yl)-4-methylphenyl)isonicotinamide], the IC50 was 1.1 nM. Same read-out and setting: then `CCNc1nc(-c2cc(NC(=O)c3cc(C(F)(F)F)c(=O)n(CC)c3)cnc2C)cc(N2CCOCC2)n1` [Example 720, 1-ethyl-N-(5-(2-(ethylamino)-6-morpholinopyrimidin-4-yl)-6-methylpyridin-3-yl)-6-oxo-5-(trifluoromethyl)-1,6-dihydropyridine-3-carboxamide], with 23.2 nM. The same measure, in the same setting: then `Cc1ccc(NC(=O)c2ccnc(C(C)(C)C#N)c2)cc1-c1cc(N2CCOC[C@H]2C)c(=O)n(C)n1` [Example 672, (R)-2-(2-cyanopropan-2-yl)-N-(4-methyl-3-(1-methyl-5-(3-methylmorpholino)-6-oxo-1,6-dihydropyridazin-3-yl)phenyl)isonicotinamide], with 15.8 nM.

In the case of `COc1nnc(-c2cc(NC(=O)c3cnnc(C(C)(C)C#N)c3)ccc2C)cc1N1CCOCC1` [Example 557, 6-(2-cyanopropan-2-yl)-N-(3-(6-methoxy-5-morpholinopyridazin-3-yl)-4-methylphenyl)pyridazine-4-carboxamide], the IC50 came out at 5.4 nM. As to `Cc1ccc(NC(=O)c2ccnc(C(C)(C)C#N)c2)cc1-c1cc(N2CCOC[C@@H]2C)c(=O)n(C)n1` [Example 663, (S)-2-(2-cyanopropan-2-yl)-N-(4-methyl-3-(1-methyl-5-(3-methylmorpholino)-6-oxo-1,6-dihydropyridazin-3-yl)phenyl)isonicotinamide], the IC50 amounted to 9.2 nM. On the same count and under the same terms, in the case of `CCOc1nnc(-c2cc(NC(=O)c3ccnc(C(C)(C)F)c3)ccc2C)cc1N1CCOCC1` [Example 564, N-(3-(6-ethoxy-5-morpholinopyridazin-3-yl)-4-methylphenyl)-2-(2-fluoropropan-2-yl)isonicotinamide] it was 1.3 nM; in that of `Cc1ccc(NC(=O)c2ccnc(C(C)(F)F)c2)cc1-c1cc(N2C3CCC2COC3)c(=O)n(C)n1` [Example 670, N-(3-(5-(3-oxa-8-azabicyclo[3.2.1]octan-8-yl)-1-methyl-6-oxo-1,6-dihydropyridazin-3-yl)-4-methylphenyl)-2-(1,1-difluoroethyl)isonicotinamide], 2.8 nM. Still for that read-out and setting: then `Cc1ccc(NC(=O)c2ccnc(C(C)(F)F)c2)cc1-c1cc(N2CCOCC2)c(OC(C)C)nn1` [Example 592, 2-(1,1-difluoroethyl)-N-(3-(6-isopropoxy-5-morpholinopyridazin-3-yl)-4-methylphenyl)isonicotinamide], with 0.7 nM; and `Cc1ccc(NC(=O)c2ccnc(C3(C#N)CC3)c2)cc1-c1cc(N2CCOCC2)n2nccc2n1` [Example 796, 2-(1-cyanocyclopropyl)-N-(4-methyl-3-(7-morpholinopyrazolo[1,5-a]pyrimidin-5-yl)phenyl)isonicotinamide], with 0.7 nM; and `Cc1ccc(C(=O)Nc2cccc(C(F)F)c2)cc1-c1cc(N2CCOCC2)n(C)c(=O)c1` [Example 514, N-(3-(difluoromethyl)phenyl)-4-methyl-3-(1-methyl-6-morpholino-2-oxo-1,2-dihydropyridin-4-yl)benzamide], with 1.1 nM.

For the compound `CCOc1ncc(-c2cc(NC(=O)c3cccc(C(F)(F)F)c3)cnc2C)nc1N1CCOCC1` [Example 539, N-(5-(5-ethoxy-6-morpholinopyrazin-2-yl)-6-methylpyridin-3-yl)-3-(trifluoromethyl)benzamide], the IC50 is 2.8 nM. On the same count and under the same terms, then `Cc1ccc(C(=O)Nc2cccc(C(C)(C)O)c2)cc1-c1cc(N2CCOCC2)n(C)c(=O)c1` [Example 516, N-(3-(2-hydroxypropan-2-yl)phenyl)-4-methyl-3-(1-methyl-6-morpholino-2-oxo-1,2-dihydropyridin-4-yl)benzamide], with 17.7 nM.

Staying with this experiment, now noted: read-out: b-Raf IC-50; AlphaScreen, 60 min pre-incubation, reaction 3 hours at room temperature.
Consider `Cc1ncc(NC(=O)c2cnnc(C3(C#N)CC3)c2)cc1-c1cnc(OCC(F)F)c(N2CCOCC2)c1` [Example 936, 6-(1-cyanocyclopropyl)-N-(6′-(2,2-difluoroethoxy)-2-methyl-5′-morpholino-[3,3′-bipyridin]-5-yl)pyridazine-4-carboxamide], for which the IC50 came to 7.55 nM. As to `Cc1ncc(NC(=O)c2cnnc(C(F)(F)F)c2)cc1-c1cc(NCCO)nc(N2CCOCC2)c1F` [Example 1004, N-(3′-fluoro-6′-((2-hydroxyethyl)amino)-2-methyl-2′-morpholino-[3,4′-bipyridin]-5-yl)-6-(trifluoromethyl)pyridazine-4-carboxamide], the IC50 came out at 83.6 nM.

For `Cc1ccc(NC(=O)c2ccnc(C3(C#N)CC3)c2)cc1-c1cc(N2CCOCC2)nc(N2CC(O)C2)c1` [Example 1071, 2-(1-cyanocyclopropyl)-N-(3-(2-(3-hydroxyazetidin-1-yl)-6-morpholinopyridin-4-yl)-4-methylphenyl)isonicotinamide], the IC50 stood at 2.08 nM. For `Cc1ncc(NC(=O)c2ccnc(C(C)(F)F)c2)cc1-c1cc(N2CCOCC2)c(S(C)(=O)=O)nn1` [Example 920, 2-(1,1-difluoroethyl)-N-(6-methyl-5-(6-(methylsulfonyl)-5-morpholinopyridazin-3-yl)pyridin-3-yl)isonicotinamide], the IC50 stood at 8.85 nM. Still for that read-out and setting: in the case of `COC(=O)NC[C@@H](C)Oc1ncc(-c2cc(NC(=O)c3cccc(C(F)(F)F)c3)cnc2C)cc1N1CCOCC1` [Example 1003, (R)-methyl(2-((2′-methyl-5-morpholino-5′-(3-(trifluoromethyl)benzamido)-[3,3′-bipyridin]-6-yl)oxy)propyl)carbamate] it was 4.12 nM; in that of `Cc1ccc(NC(=O)c2cccc(S(C)(=O)=O)c2)cc1-c1cc(N2CCOCC2)nc(N2CC(C)(O)C2)c1` [Example 1074, N-(3-(2-(3-hydroxy-3-methylazetidin-1-yl)-6-morpholinopyridin-4-yl)-4-methylphenyl)-3-(methylsulfonyl)benzamide], 1.86 nM. The same measure, in the same setting: then `Cc1ncc(NC(=O)c2cccc(C(F)(F)F)c2)cc1-c1cc(N2CCOCC2)c2nccn2n1` [Example 867, N-(6-methyl-5-(8-morpholinoimidazo[1,2-b]pyridazin-6-yl)pyridin-3-yl)-3-(trifluoromethyl)benzamide], with 1.4 nM; and `CCOc1ccc(-c2cc(NC(=O)c3ccnc(C(C)(C)F)c3)cnc2C)nc1N1CCOCC1` [Example 1027, N-(5-ethoxy-2′-methyl-6-morpholino-[2,3′-bipyridin]-5′-yl)-2-(2-fluoropropan-2-yl)isonicotinamide], with 8.48 nM.

The same experiment, now with this note: read-out: b-Raf IC-50; Table 2; AlphaScreen, 3 hours reaction.
In the case of `CCOc1ncc(-c2cc(NC(=O)c3ccnc(C4CC4)c3)cnc2C)cc1N1CCOCC1` [Example 254, 2-cyclopropyl-N-(6′-ethoxy-2-methyl-5′-morpholino-[3,3′-bipyridin]-5-yl)isonicotinamide], the IC50 was 1.8 nM. Same read-out and setting: then `Cc1ncc(NC(=O)c2ccc(F)c(OC(C)C)c2)cc1-c1cc(N2CCOCC2)c(=O)n(C)c1` [Example 396, N-(1′,2-dimethyl-5′-morpholino-6′-oxo-1′,6′-dihydro-[3,3′-bipyridin]-5-yl)-4-fluoro-3-isopropoxybenzamide], with 10.8 nM; and `CCOc1ncc(-c2cc(NC(=O)c3ccnc(C(C)(F)F)c3)ccc2C)cc1N1CCOCC1` [Example 233, 2-(1,1-difluoroethyl)-N-(3-(6-ethoxy-5-morpholinopyridin-3-yl)-4-methylphenyl)isonicotinamide], with 0.6 nM; and `Cc1ccc(NC(=O)c2cccc(C(F)F)c2)cc1-c1cc(N2CCOCC2)c(=O)n(C)n1` [Example 190, 3-(difluoromethyl)-N-(4-methyl-3-(1-methyl-5-morpholino-6-oxo-1,6-dihydropyridazin-3-yl)phenyl)benzamide], with 2.2 nM.

With `CCOc1ncc(-c2cc(NC(=O)c3ccnc(C(C)C)c3)cnc2C)cc1N1CCOCC1` [Example 252, N-(6′-ethoxy-2-methyl-5′-morpholino-[3,3′-bipyridin]-5-yl)-2-isopropylisonicotinamide], the IC50 was determined as 3.1 nM.

As for `Cc1ccc(NC(=O)c2cnnc(C(C)(C)C#N)c2)cc1-c1cc(N2CCOCC2)c(=O)n(C)c1` [Example 360, 6-(2-cyanopropan-2-yl)-N-(4-methyl-3-(1-methyl-5-morpholino-6-oxo-1,6-dihydropyridin-3-yl)phenyl)pyridazine-4-carboxamide], the IC50 was 6 nM. Same read-out and setting: then `Cc1ccc(NC(=O)c2ccnc(C(C)C)c2)cc1-c1cc(N2CCOCC2)c(=O)n(C)c1` [Example 348, 2-isopropyl-N-(4-methyl-3-(1-methyl-5-morpholino-6-oxo-1,6-dihydropyridin-3-yl)phenyl)isonicotinamide], with 2.7 nM; and `Cc1ncc(NC(=O)c2cccc(C(F)(F)F)c2)cc1-c1cc(N2CCOCC2)nc(N2CCOCC2)c1` [Example 77, N-(2-methyl-2′,6′-dimorpholino-[3,4′-bipyridin]-5-yl)-3-(trifluoromethyl)benzamide], with 0.6 nM. On the same count and under the same terms, in the case of `Cc1ncc(NC(=O)c2cccc(C(F)F)c2)cc1-c1cc(N2CCOCC2)c(=O)n(C)c1` [Example 394, 3-(difluoromethyl)-N-(1′,2-dimethyl-5′-morpholino-6′-oxo-1′,6′-dihydro-[3,3′-bipyridin]-5-yl)benzamide] it was 3.6 nM. Take `Cc1ncc(NC(=O)c2cc(CN(C)C)cc(C(F)(F)F)c2)cc1-c1cnc(C#N)c(N2CCOCC2)c1` [Example 249, N-(6′-cyano-2-methyl-5′-morpholino-[3,3′-bipyridin]-5-yl)-3-((dimethylamino)methyl)-5-(trifluoromethyl)benzamide]: the IC50 was 36.5 nM.

Turning to `Cc1ccc(NC(=O)c2cccc(C(F)(F)F)c2)cc1-c1cc(N2CCOCC2)c(=O)n(CC2(C)COC2)c1` [Example 337, N-(4-methyl-3-(1-((3-methyloxetan-3-yl)methyl)-5-morpholino-6-oxo-1,6-dihydropyridin-3-yl)phenyl)-3-(trifluoromethyl)benzamide], the IC50 was found to be 12.5 nM.

For the origin of these results see patent publication US9694016B2 (Novartis AG, priority 2013, dated 2017).
